Measurements as given in patent publication US9049863B2, “Substituted (3R,4R)-4-cyan-3,4-diphenylbutanoates, method for the production thereof and use thereof as herbicides and plant growth regulators” (Bayer Intellectual Property GmbH, priority 2011, dated 2015).

Test system: a plurality of harmful plants
Experiment: Herbicidal pre-emergence action
Type: in vivo
Conditions: 320 g or less of active substance per hectare
Description: Seeds of monocotyledonous and dicotyledonous weed plants and crop plants are placed in wood-fiber pots in sandy loam and covered with soil. The compounds (I) according to the invention, formulated in the form of wettable powders (WP), are then applied as aqueous suspension or emulsion at a water application rate of 600 l/ha (converted) with the addition of 0.2% of wetting agent to the surface of the covering soil.
After the treatment, the pots are placed in a greenhouse and kept under good growth conditions for the test plants. After about 3 weeks, the effect of the preparations is scored visually in comparison with untreated controls as percentages. For example, 100% activity=the plants have died, 50% herbicidal activity or damage=the plants have been reduced by 50% or the plant mass has been reduced by 50%, 0% activity=like control plants.

Question: Which “herbicidal activity against a plurality of harmful plants” value (“herbicidal activity against a plurality” for short) does the source give for `COC(=O)C[C@@H](c1c(F)cccc1F)[C@@H](C#N)c1ccc(F)c(Br)c1` [Example 359] here?
Answer: Its value is “good herbicidal activity”.

Question: For `COC(=O)C[C@@H](c1cccc(F)c1)[C@@H](C#N)c1cccc(F)c1` [Example 2], which “herbicidal activity against a plurality” value is on record?
Answer: The value was “good herbicidal activity”.

Question: With `COC(=O)C[C@@H](c1c(F)cccc1F)[C@@H](C#N)c1ccc(F)c(F)c1` [Example 174] as the molecule, how does the “herbicidal activity against a plurality” value read?
Answer: Its value is “good herbicidal activity”.

Question: For `COC(=O)C[C@@H](c1cc(F)ccc1F)[C@@H](C#N)c1cccc(F)c1` [Example 23], which “herbicidal activity against a plurality” value is on record?
Answer: Its value is “good herbicidal activity”.

Question: Which “herbicidal activity against a plurality” value does the source give for `COC(=O)C[C@@H](c1ccc(Cl)cc1)[C@@H](C#N)c1ccc(F)c(F)c1` [Example 3] here?
Answer: Its value is “good herbicidal activity”.

Question: Which “herbicidal activity against a plurality” value does the source give for `COC(=O)C[C@@H](c1c(F)cccc1F)[C@@H](C#N)c1ccc(F)c(Cl)c1` [Example 227] here?
Answer: Its value is “good herbicidal activity”.

Question: `CC(C)OC(=O)C[C@@H](c1cccc(F)c1)[C@@H](C#N)c1ccc(F)c(F)c1` [Example 85] was tested. Which “herbicidal activity against a plurality” value did it give?
Answer: The value was “good herbicidal activity”.

Question: `COC(=O)C[C@@H](c1cc(F)cc(Cl)c1)[C@@H](C#N)c1ccc(F)c(F)c1` [Example 21] was tested. Which “herbicidal activity against a plurality” value did it give?
Answer: The value was “good herbicidal activity”.

Question: For `COC(=O)C[C@@H](c1cc(F)ccc1F)[C@@H](C#N)c1ccc(F)c(Br)c1` [Example 358], which “herbicidal activity against a plurality” value is on record?
Answer: The value was “good herbicidal activity”.

Question: For `COC(=O)C[C@@H](c1cc(F)ccc1F)[C@@H](C#N)c1ccc(Cl)c(Cl)c1` [Example 208], which “herbicidal activity against a plurality” value is on record?
Answer: The value was “good herbicidal activity”.

Question: `COC(=O)C[C@@H](c1cccc(F)c1)[C@@H](C#N)c1ccc(F)c(Cl)c1` [Example 30] was tested. Which “herbicidal activity against a plurality” value did it give?
Answer: Its value is “good herbicidal activity”.

Question: With `COC(=O)C[C@@H](c1cccc(F)c1)[C@@H](C#N)c1cc(F)cc(F)c1` [Example 12] as the molecule, how does the “herbicidal activity against a plurality” value read?
Answer: The value was “good herbicidal activity”.

Question: How did the “herbicidal activity against a plurality” value turn out when `COC(=O)C[C@@H](c1cccc(F)c1)[C@@H](C#N)c1ccc(F)cc1` [Example 8] was run?
Answer: The value was “good herbicidal activity”.

Question: Which “herbicidal activity against a plurality” value does the source give for `N#C[C@@H](c1ccc(F)c(F)c1)[C@@H](CC(=O)O)c1cccc(Cl)c1` [Example 107, (3R,4R)-3-(3-Chlorophenyl)-4-cyano-4-(3,4-difluorophenyl)butanoic acid] here?
Answer: Its value is “good herbicidal activity”.

Question: For `COC(=O)C[C@@H](c1cc(F)cc(Cl)c1)[C@@H](C#N)c1cccc(F)c1` [Example 22], which “herbicidal activity against a plurality” value is on record?
Answer: The value was “good herbicidal activity”.

Question: `COC(=O)C[C@@H](c1cccc(Cl)c1)[C@@H](C#N)c1cccc(C#N)c1` [Example 326] was tested. Which “herbicidal activity against a plurality” value did it give?
Answer: Its value is “good herbicidal activity”.

Question: For `COC(=O)C[C@@H](c1cccc(F)c1F)[C@@H](C#N)c1cccc(F)c1` [Example 18], which “herbicidal activity against a plurality” value is on record?
Answer: The value was “good herbicidal activity”.

Question: Which “herbicidal activity against a plurality” value does the source give for `CC(C)COC(=O)C[C@@H](c1cccc(F)c1)[C@@H](C#N)c1ccc(F)c(F)c1` [Example 87] here?
Answer: Its value is “good herbicidal activity”.

Question: With `COC(=O)C[C@@H](c1cc(F)ccc1F)[C@@H](C#N)c1ccc(F)c(F)c1` [Example 25] as the molecule, how does the “herbicidal activity against a plurality” value read?
Answer: Its value is “good herbicidal activity”.

Question: How did the “herbicidal activity against a plurality” value turn out when `COC(=O)C[C@@H](c1cccc(Cl)c1)[C@@H](C#N)c1ccc(F)c(F)c1` [Example 10, Methyl (3R,4R)-3-(3-chlorophenyl)-4-cyano-4-(3,4-difluorophenyl)butanoate] was run?
Answer: The value was “good herbicidal activity”.

Question: With `COC(=O)C[C@@H](c1cc(F)ccc1F)[C@@H](C#N)c1ccc(F)c(C#N)c1` [Example 344] as the molecule, how does the “herbicidal activity against a plurality” value read?
Answer: Its value is “good herbicidal activity”.

Question: Which “herbicidal activity against a plurality” value does the source give for `CC(C)COC(=O)C[C@@H](c1cccc(Cl)c1)[C@@H](C#N)c1ccc(F)c(F)c1` [Example 112] here?
Answer: The value was “good herbicidal activity”.

Question: `CCCOC(=O)C[C@@H](c1cccc(F)c1)[C@@H](C#N)c1ccc(F)c(F)c1` [Example 84] was tested. Which “herbicidal activity against a plurality” value did it give?
Answer: Its value is “good herbicidal activity”.

Question: `COC(=O)C[C@@H](c1cccc(Cl)c1)[C@@H](C#N)c1ccc(Cl)c(F)c1` [Example 27] was tested. Which “herbicidal activity against a plurality” value did it give?
Answer: Its value is “good herbicidal activity”.

Question: For `COC(=O)C[C@@H](c1ccc(OC)c(F)c1)[C@@H](C#N)c1ccc(F)c(F)c1` [Example 390], which “herbicidal activity against a plurality” value is on record?
Answer: Its value is “good herbicidal activity”.

Question: Which “herbicidal activity against a plurality” value does the source give for `COC(=O)C[C@@H](c1ccccc1F)[C@@H](C#N)c1cccc(F)c1` [Example 13] here?
Answer: The value was “good herbicidal activity”.

Question: With `COC(=O)C[C@@H](c1ccc(Cl)c(F)c1)[C@@H](C#N)c1ccc(F)c(F)c1` [Example 16] as the molecule, how does the “herbicidal activity against a plurality” value read?
Answer: Its value is “good herbicidal activity”.

Question: How did the “herbicidal activity against a plurality” value turn out when `COC(=O)C[C@@H](c1ccccc1)[C@@H](C#N)c1ccc(F)c(F)c1` [Example 29] was run?
Answer: Its value is “good herbicidal activity”.

Question: For `CCOC(=O)C[C@@H](c1cccc(F)c1)[C@@H](C#N)c1ccc(F)c(F)c1` [Example 83], which “herbicidal activity against a plurality” value is on record?
Answer: Its value is “good herbicidal activity”.

Question: `COC(=O)C[C@@H](c1cc(F)cc(F)c1)[C@@H](C#N)c1ccc(F)cc1` [Example 19] was tested. Which “herbicidal activity against a plurality” value did it give?
Answer: The value was “good herbicidal activity”.

Question: How did the “herbicidal activity against a plurality” value turn out when `COC(=O)C[C@@H](c1cccc(F)c1)[C@@H](C#N)c1ccc(F)c(C#N)c1` [Example 339] was run?
Answer: Its value is “good herbicidal activity”.

Question: Which “herbicidal activity against a plurality” value does the source give for `CCOC(=O)C[C@@H](c1ccc(OC)cc1)[C@@H](C#N)c1ccc(F)c(F)c1` [Example 31] here?
Answer: Its value is “good herbicidal activity”.

Question: For `COC(=O)C[C@@H](c1cccc(F)c1)[C@@H](C#N)c1cccc(Cl)c1` [Example 5], which “herbicidal activity against a plurality” value is on record?
Answer: The value was “good herbicidal activity”.

Question: Which “herbicidal activity against a plurality” value does the source give for `CCOC(=O)C[C@@H](c1cccc(Cl)c1)[C@@H](C#N)c1ccc(F)c(F)c1` [Example 108] here?
Answer: The value was “good herbicidal activity”.

Question: For `COC(=O)C[C@@H](c1c(F)cccc1F)[C@@H](C#N)c1cccc(F)c1` [Example 162], which “herbicidal activity against a plurality” value is on record?
Answer: Its value is “good herbicidal activity”.

Question: How did the “herbicidal activity against a plurality” value turn out when `N#C[C@@H](c1cccc(F)c1)[C@@H](CC(=O)OCC[S+]([O-])c1ccccc1)c1ccc(Cl)cc1` (some centres unmarked) [Example 55] was run?
Answer: The value was “good herbicidal activity”.

Question: With `COC(=O)C[C@@H](c1cccc(F)c1F)[C@@H](C#N)c1ccc(F)c(F)c1` [Example 24] as the molecule, how does the “herbicidal activity against a plurality” value read?
Answer: The value was “good herbicidal activity”.

Question: With `COC(=O)C[C@@H](c1cccc(F)c1)[C@@H](C#N)c1cccc(Br)c1` [Example 11] as the molecule, how does the “herbicidal activity against a plurality” value read?
Answer: The value was “good herbicidal activity”.

Question: `COC(=O)C[C@@H](c1cccc(Cl)c1)[C@@H](C#N)c1ccc(F)c(C#N)c1` [Example 340] was tested. Which “herbicidal activity against a plurality” value did it give?
Answer: The value was “good herbicidal activity”.

Question: Which “herbicidal activity against a plurality” value does the source give for `COC(=O)C[C@@H](c1cccc(F)c1)[C@@H](C#N)c1ccccc1` [Example 7] here?
Answer: The value was “good herbicidal activity”.

Question: How did the “herbicidal activity against a plurality” value turn out when `COC(=O)C[C@@H](c1ccc(Cl)cc1)[C@@H](C#N)c1cc(F)c(F)c(F)c1` [Example 14] was run?
Answer: The value was “good herbicidal activity”.

Question: Which “herbicidal activity against a plurality” value does the source give for `COC(=O)C[C@@H](c1ccc(Cl)cc1)[C@@H](C#N)c1cccc(C#N)c1` [Example 329] here?
Answer: The value was “good herbicidal activity”.

Question: With `COC(=O)C[C@@H](c1cc(F)cc(Cl)c1)[C@@H](C#N)c1cccc(Cl)c1` [Example 26] as the molecule, how does the “herbicidal activity against a plurality” value read?
Answer: The value was “good herbicidal activity”.

Question: `COC(=O)C[C@@H](c1ccc(F)cc1)[C@@H](C#N)c1cccc(F)c1` [Example 20] was tested. Which “herbicidal activity against a plurality” value did it give?
Answer: The value was “good herbicidal activity”.

Question: With `COC(=O)C[C@@H](c1cccc(F)c1)[C@@H](C#N)c1ccc(F)c(F)c1` [Example 6] as the molecule, how does the “herbicidal activity against a plurality” value read?
Answer: Its value is “good herbicidal activity”.

Question: `COC(=O)C[C@@H](c1cccc([N+](=O)[O-])c1)[C@@H](C#N)c1ccc(F)c(F)c1` [Example 28] was tested. Which “herbicidal activity against a plurality” value did it give?
Answer: Its value is “good herbicidal activity”.

Question: For `COC(=O)C[C@@H](c1cccc(Cl)c1)[C@@H](C#N)c1cccc(F)c1` [Example 9], which “herbicidal activity against a plurality” value is on record?
Answer: Its value is “good herbicidal activity”.

Question: Which “herbicidal activity against a plurality” value does the source give for `CCOC(=O)C[C@@H](c1c(F)cccc1F)[C@@H](C#N)c1ccc(F)c(F)c1` [Example 283] here?
Answer: The value was “good herbicidal activity”.

Question: With `COC(=O)C[C@@H](c1ccc(Br)cc1)[C@@H](C#N)c1cccc(F)c1` [Example 4] as the molecule, how does the “herbicidal activity against a plurality” value read?
Answer: Its value is “good herbicidal activity”.

Question: Which “herbicidal activity against a plurality” value does the source give for `COC(=O)C[C@@H](c1ccc(Cl)cc1)[C@@H](C#N)c1ccc(F)c(C#N)c1` [Example 343] here?
Answer: The value was “good herbicidal activity”.

Question: With `CCCCOC(=O)C[C@@H](c1cccc(Cl)c1)[C@@H](C#N)c1ccc(F)c(F)c1` [Example 111] as the molecule, how does the “herbicidal activity against a plurality” value read?
Answer: The value was “good herbicidal activity”.

Question: How did the “herbicidal activity against a plurality” value turn out when `COC(=O)C[C@@H](c1ccccc1F)[C@@H](C#N)c1ccc(F)c(F)c1` [Example 17] was run?
Answer: The value was “good herbicidal activity”.

Question: Which “herbicidal activity against a plurality” value does the source give for `COC(=O)C[C@@H](c1cccc(Cl)c1)[C@@H](C#N)c1ccc(F)cc1` [Example 15] here?
Answer: Its value is “good herbicidal activity”.
